Measured values from patent publication US6423689B1, “Peptidyl calcium channel blockers” (Warner-Lambert Company, priority 1997, dated 2002).

What was measured:
[1] = biological target: T1, N-type Ca2+ channels in IMR-32 cells (Homo sapiens, UniProt Q00975); experiment: Inhibition of N-type calcium flux in IMR-32 cells (Indo-1 fluorescence, nitrendipine present); assay type: cell-based; conditions: for inhibition at 1 µM / inhibition at 10 µM: IMR-32; for IC50: IMR-32 cells, 5 μM nitrendipine, K+ depolarization
T1 construct: host or cells: IMR-32 cells, differentiated with dibutyryl cAMP and bromodeoxyuridine
T1 sequence (Q00975 whole entry): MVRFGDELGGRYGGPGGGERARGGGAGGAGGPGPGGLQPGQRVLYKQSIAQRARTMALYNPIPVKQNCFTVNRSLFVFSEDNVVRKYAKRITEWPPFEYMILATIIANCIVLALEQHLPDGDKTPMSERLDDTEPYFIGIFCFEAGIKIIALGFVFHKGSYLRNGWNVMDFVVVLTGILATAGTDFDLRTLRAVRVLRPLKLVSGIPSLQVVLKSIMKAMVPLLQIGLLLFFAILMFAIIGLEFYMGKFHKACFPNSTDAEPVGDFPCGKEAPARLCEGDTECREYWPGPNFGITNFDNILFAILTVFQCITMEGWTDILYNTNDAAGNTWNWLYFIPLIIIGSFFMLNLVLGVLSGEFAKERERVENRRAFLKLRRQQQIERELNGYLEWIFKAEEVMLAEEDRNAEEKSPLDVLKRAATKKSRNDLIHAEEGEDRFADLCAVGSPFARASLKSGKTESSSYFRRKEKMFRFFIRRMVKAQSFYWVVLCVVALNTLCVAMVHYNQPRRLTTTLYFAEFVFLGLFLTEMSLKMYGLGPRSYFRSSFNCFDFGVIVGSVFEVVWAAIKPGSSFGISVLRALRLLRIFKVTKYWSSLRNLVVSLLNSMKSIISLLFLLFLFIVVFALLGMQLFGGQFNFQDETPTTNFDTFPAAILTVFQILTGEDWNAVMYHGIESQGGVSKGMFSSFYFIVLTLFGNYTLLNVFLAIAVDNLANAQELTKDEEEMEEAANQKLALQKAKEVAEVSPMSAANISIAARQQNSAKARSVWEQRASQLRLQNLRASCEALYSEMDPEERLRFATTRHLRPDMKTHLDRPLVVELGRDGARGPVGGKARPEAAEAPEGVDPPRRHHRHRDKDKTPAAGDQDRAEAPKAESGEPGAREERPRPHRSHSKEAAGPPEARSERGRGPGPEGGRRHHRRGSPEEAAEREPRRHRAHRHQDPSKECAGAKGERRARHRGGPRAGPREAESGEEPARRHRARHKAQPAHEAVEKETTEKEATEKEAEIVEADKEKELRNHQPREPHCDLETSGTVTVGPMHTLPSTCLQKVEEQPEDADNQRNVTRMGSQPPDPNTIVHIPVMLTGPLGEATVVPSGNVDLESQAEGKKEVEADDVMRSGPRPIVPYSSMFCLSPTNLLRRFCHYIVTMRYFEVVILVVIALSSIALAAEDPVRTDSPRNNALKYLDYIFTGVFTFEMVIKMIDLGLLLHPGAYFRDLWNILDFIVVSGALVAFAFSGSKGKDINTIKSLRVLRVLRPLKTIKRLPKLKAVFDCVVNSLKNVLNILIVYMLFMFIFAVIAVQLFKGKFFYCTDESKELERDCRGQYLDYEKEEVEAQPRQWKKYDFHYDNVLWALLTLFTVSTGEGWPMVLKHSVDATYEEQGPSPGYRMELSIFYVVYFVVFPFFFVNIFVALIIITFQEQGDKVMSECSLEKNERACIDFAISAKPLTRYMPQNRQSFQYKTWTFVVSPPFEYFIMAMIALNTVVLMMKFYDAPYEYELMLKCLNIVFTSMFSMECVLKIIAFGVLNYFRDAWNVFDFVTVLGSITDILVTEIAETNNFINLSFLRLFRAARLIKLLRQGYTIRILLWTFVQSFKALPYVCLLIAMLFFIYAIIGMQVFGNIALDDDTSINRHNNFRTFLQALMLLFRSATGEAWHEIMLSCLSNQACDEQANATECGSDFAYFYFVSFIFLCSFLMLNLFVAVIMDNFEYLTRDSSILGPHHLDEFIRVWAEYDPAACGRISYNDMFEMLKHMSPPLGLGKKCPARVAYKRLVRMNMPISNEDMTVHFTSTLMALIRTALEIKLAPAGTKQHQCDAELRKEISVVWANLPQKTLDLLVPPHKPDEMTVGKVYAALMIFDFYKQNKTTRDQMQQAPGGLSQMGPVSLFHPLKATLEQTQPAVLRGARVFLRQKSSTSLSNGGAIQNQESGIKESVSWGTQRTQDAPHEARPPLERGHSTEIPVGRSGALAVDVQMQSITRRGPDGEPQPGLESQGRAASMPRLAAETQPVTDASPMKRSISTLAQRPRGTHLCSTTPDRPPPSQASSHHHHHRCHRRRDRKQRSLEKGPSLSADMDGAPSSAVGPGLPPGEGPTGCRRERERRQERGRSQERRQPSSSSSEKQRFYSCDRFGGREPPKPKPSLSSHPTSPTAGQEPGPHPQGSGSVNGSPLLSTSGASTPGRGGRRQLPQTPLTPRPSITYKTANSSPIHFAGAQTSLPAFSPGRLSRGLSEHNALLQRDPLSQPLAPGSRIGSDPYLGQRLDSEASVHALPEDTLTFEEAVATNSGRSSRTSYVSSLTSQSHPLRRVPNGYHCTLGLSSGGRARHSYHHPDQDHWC
T1 sequence (P54289 25-956 partner limits assumed): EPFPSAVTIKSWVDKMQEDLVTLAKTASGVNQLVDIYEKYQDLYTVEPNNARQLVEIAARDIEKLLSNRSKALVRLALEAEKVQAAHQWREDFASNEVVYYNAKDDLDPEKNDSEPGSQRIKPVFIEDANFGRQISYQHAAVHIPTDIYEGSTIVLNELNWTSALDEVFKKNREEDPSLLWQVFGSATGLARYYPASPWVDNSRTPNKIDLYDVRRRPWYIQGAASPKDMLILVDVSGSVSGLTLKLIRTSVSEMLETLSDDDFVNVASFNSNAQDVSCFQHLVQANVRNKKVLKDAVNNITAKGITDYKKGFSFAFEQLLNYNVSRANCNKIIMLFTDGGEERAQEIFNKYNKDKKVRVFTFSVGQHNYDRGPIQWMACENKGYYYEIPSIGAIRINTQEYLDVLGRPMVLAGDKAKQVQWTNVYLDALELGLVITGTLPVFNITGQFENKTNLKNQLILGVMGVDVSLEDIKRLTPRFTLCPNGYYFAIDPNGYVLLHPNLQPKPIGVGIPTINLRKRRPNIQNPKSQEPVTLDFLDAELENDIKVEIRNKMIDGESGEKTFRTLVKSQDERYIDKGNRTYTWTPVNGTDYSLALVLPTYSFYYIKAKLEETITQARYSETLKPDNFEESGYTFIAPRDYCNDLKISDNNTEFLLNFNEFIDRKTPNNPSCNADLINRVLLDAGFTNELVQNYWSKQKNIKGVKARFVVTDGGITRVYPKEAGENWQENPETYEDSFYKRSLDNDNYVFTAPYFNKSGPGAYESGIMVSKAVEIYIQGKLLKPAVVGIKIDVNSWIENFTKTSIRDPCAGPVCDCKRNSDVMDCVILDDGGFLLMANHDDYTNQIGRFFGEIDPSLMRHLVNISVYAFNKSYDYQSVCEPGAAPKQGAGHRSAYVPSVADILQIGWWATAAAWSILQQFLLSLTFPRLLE
T1 sequence (P54289 957-1103 partner limits assumed): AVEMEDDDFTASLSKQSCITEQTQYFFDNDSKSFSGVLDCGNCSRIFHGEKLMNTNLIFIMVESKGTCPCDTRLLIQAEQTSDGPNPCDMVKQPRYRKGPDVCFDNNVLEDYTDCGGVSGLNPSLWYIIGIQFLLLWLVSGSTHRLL
T1 sequence (P54284 whole entry partner): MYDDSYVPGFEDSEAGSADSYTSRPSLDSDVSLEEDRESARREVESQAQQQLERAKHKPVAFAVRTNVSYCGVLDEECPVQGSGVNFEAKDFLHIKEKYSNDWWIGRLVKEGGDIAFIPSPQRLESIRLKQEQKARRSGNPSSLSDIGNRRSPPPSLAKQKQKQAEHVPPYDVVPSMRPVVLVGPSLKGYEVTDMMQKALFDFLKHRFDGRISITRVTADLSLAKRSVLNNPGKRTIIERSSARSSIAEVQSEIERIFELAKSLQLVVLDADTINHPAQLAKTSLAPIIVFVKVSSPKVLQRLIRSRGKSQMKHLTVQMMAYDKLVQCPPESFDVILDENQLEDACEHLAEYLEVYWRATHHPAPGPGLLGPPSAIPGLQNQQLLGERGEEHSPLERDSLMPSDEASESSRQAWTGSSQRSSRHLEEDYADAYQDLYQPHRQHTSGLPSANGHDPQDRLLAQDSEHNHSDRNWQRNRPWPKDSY
Method in brief: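 With L-type flux blocked by 5 μM nitrendipine, N-type Ca2+ entry was read as the Indo-1 emission ratio (400/490 nm, excitation 350 nm) at 30° C after KCl depolarization.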

[2] = test system: Na+ channels in superior cervical ganglion (SCG) neurons; experiment: Whole-cell voltage clamp, Na+ current in SCG neurons; assay type: cell-based, rat; conditions: for IC50: read-out: Inhibition of Na+ Current IC50
Experimental: (§1) Electrophysiological techniques were used to measure the effects of experimental compounds on voltage-gated Ca^2+, Na^+ and K^+ channels. […] Sodium and potassium channel currents were measured from acutely dissociated SCG neurons.
(§2) Dissociation of the neurons from the ganglia was accomplished using a 30 to 45 minute treatment in 0.25% trypsin, similar to methods outlined in Higgins, et al. [see Higgins D., et al. “Tissue culture of mammalian autonomic neurons.” In Banker G. and Goslin K. (Eds), Culturing Nerve Cells, Cambridge, Mass., MIT Press (1991)].
(§3) Ca^2+, Na^+ and K^+ channel currents in SCG neurons were measured using conventional single electrode whole-cell voltage-clamp techniques, outlined in Hamill, et al., (see Hamill O.P., et al. “Improved patch-clamp techniques for high resolution current recordings from cells and cell-free membrane patches”. Pflugers Arch. 1981;391:85-100) For Ca^2+ channel experiments, the external bathing solution contained tetraethylammonium chloride (100 mM), choline chloride (52 mM), NaCl (15 mM), HEPES (10 mM), glucose (5.6 mM), CaCl2 (2 mM), and MgCl2 (0.8 mM) pH 7.35 with KOH; with the internal pipette solution containing cesium methane sulfonate (140 mM), EGTA (10 mM), and HEPES (10 mM), supplemented with 5 mM Mg^2+ -ATP on the day of the experiment, pH 7.4 with CsOH. For Na^+ and K^+ channel experiments, the external bathing solution contained NaCl (150 mM), KCl (5 mM), MgCl2 (1.1 mM), CaCl2 (2.6 mM), Na-HEPES (10 mM), and glucose (10 mM), pH 7.4; with the internal pipette solution containing KCl (80 mM), K-gluconate (50 mM), HEPES (10 mM), and EGTA (10 mM), pH 7.4 with KOH. Experimental compounds were diluted into the external solution and applied to the soma of cells by local perfusion from large diameter (20-50 μm) glass micropipettes or from a U-tube applicator.
(§4) For Na^+ and K^+ channel currents, following the determination of the I/V relationship for each cell in control solution, currents were evoked from a holding potential between −65 and −55 mV by stepping every 10 sec to a test potential of either 0 mV for Na^+ or +50 mV for K^+ current for a duration of 35 msec. Peak inward current was measured for Na^+ and sustained current for K^+ channel currents. […] Test compounds were applied until steady-state block was achieved. Data were expressed as percent inhibition of control amplitudes for Na^+ and K^+ channel currents.

[3] = test system: K+ channels in superior cervical ganglion (SCG) neurons; experiment: Whole-cell voltage clamp, K+ current in SCG neurons; assay type: cell-based, rat; conditions: for IC50: read-out: Inhibition of K+ Current IC50
Experimental: as §1, §2, §3, §4

[4] = biological target: T2, N-type Ca2+ channels in superior cervical ganglion (SCG) neurons (Rattus norvegicus, UniProt Q02294); experiment: Whole-cell voltage clamp, N-type Ca2+ current in SCG neurons; assay type: cell-based; conditions: for IC50: read-out: Inhibition of N-type Ca2+ Current IC50
T2 construct: from tissue
Experimental: as §1, §2, §3
After obtaining a whole-cell recording, Ca^2+ channels were elicited by stepping to test potentials between −40 and +20 mV for 120 msec from the holding potential of −90 mV to determine if the amplitude of the current and clamp control were adequate for evaluation of drug effects. Ca^2+ channel currents were evoked by stepping from a holding potentials between −65 mV and −−55 mV to a test potential of +20 mV for 150 msec every 40 seconds. The amplitude of the Ca^2+ channel currents were compared before and during drug application and drug effects expressed as percent inhibition of the amplitude of control currents.

melting point [°C] | inhibition at 1 µM [1] [%] | inhibition at 10 µM [1] [%] | IC50 [1] [nM] | inhibition at 10 µM ([4]; 10 μM) [%] | IC50 [4] [nM] | IC50 [2] [nM] | IC50 [3] [nM] | Inhibition of N-type Ca2+ Current, % Inhibition at 10 μM ([4]; 10 μM) [%] | SMILES | Inhibition of Na+ Current, % Inhibition at 10 μM [2] [%] | Inhibition of K+ Current, % Inhibition at 10 μM [3] [%]
67 to 69 | 46 | 73 | 2100 |  |  |  |  |  | CC(C)C[C@H](NC(=O)N1CCN(c2ccccc2)CC1)C(=O)N[C@@H](Cc1ccc(OCc2ccccc2)cc1)C(=O)OC(C)(C)C [Example 10, [S-(R*,R*)]-3-(4-Benzyloxy-phenyl)-2-{4-methyl-2-[(4-phenyl-piperazine-1-carbonyl)-amino]-pentanoylamino}-propionic acid tert-butyl ester] |  | 
105 to 106 | 40 | 86 | 1700 |  |  |  |  |  | COc1ccc(C[C@H](NC(=O)[C@H](CC(C)C)NC(=O)N2CCCCCC2)C(=O)OC(C)(C)C)cc1 [Example 13, [S-(R*,R*)]-2-{2-[(Azepane-1-carbonyl)-amino]-4-methyl-pentanoylamino}-3-(4-methoxy-phenyl)-propionic acid tert-butyl ester] |  | 
72 to 74 | 45 | 99 | 1100 |  |  |  |  |  | COC(=O)[C@H](Cc1ccc(OCc2ccccc2)cc1)NC(=O)[C@H](CC(C)C)NC(=O)N1CCCCCC1 [Example 15, [S-(R*,R*)]-2-{2-[(Azepane-1-carbonyl)-amino]-4-methyl-pentanoylamino}-3-(4-benzyloxy-phenyl)-propionic acid methyl ester] |  | 
147 to 148 | 65 | 91 | 280 |  |  |  |  |  | CC(C)C[C@H](NS(=O)(=O)c1ccc(C(C)C)cc1)C(=O)N[C@@H](Cc1ccc(OCc2ccccc2)cc1)C(=O)OC(C)(C)C [Example 37, [S-(R*,R*)]-3-(4-Benzyloxy-phenyl)-2(S)-[2(S)-(4-isopropyl-benzenesulfonylamino)-4-methyl-pentanoylamino]-propionic acid tert-butyl ester] | 5 | 9
148 to 149 | 48 | 83 | 940 |  |  |  |  |  | CC(C)C[C@H](NS(=O)(=O)c1ccc(Br)cc1)C(=O)N[C@@H](Cc1ccc(OCc2ccccc2)cc1)C(=O)OC(C)(C)C [Example 38, [S-(R*,R*)]-2-{2-[(4-Bromobenzene-1-sulfonyl-carbonyl)-amino]-4-methyl-pentanoylamino-3-(4-benzyloxyphenyl)-propionic acid, tert-butyl ester] |  | 
123 to 124 | 48 | 86 | 1000 |  |  |  |  |  | CC(C)C[C@H](NS(=O)(=O)N1CCCCCC1)C(=O)N[C@@H](Cc1ccc(OCc2ccccc2)cc1)C(=O)OC(C)(C)C [Example 40, [S-(R*,R*)]-2-[2-(Azepane-1-sulfonylamino)-4-methyl-pentanoylamino]-3-(4-benzyloxy-phenyl)-propionic acid tert-butyl ester] |  | 
125 to 126 | 51 | 86 | 800 |  |  |  |  |  | CC(C)C[C@H](NS(=O)(=O)N1CCCCC1)C(=O)N[C@@H](Cc1ccc(OCc2ccccc2)cc1)C(=O)OC(C)(C)C [Example 41, [S-(R*,R*)]-3-(4-Benzyloxy-phenyl)-2-[4-methyl-2-(piperidine-1-sulfonylamino)-pentanoylamino]-propionic acid tert-butyl ester] |  | 
54 to 57 | 50 | 95 | 950 | 64 |  |  |  |  | CC(C)C[C@H](NS(=O)(=O)N1CCOCC1)C(=O)N[C@@H](Cc1ccc(OCc2ccccc2)cc1)C(=O)OC(C)(C)C [Example 42, [S-(R*,R*)]-3-(4-Benzyloxy-phenyl)-2-[4-methyl-2-(morpholine-4-sulfonylamino)-pentanoylamino]-propionic acid tert-butyl ester] |  | 
161 to 162 | 42 | 63 | 1300 |  |  |  |  |  | CC(C)C[C@H](NC(=S)NC1CCCCC1)C(=O)N[C@@H](Cc1ccc(OCc2ccccc2)cc1)C(=O)OC(C)(C)C [Example 47, [S-(R*,R*)]-3-(4-benzyloxy-phenyl)-2-[2-(3-cyclohexyl-thioureido)-4-methyl-pentanoylamino}-propionic acid, tert-butyl ester] |  | 
66 to 67 | 52 | 81 | 1200 |  |  |  |  |  | CC(C)C[C@H](NC(=S)Nc1ccccc1Cl)C(=O)N[C@@H](Cc1ccc(OCc2ccccc2)cc1)C(=O)OC(C)(C)C [Example 48, [S-(R*,R*)]-3-(4-Benzyloxy-phenyl)-2-{2-[3-(2-chloro-phenyl)-thioureido]-4-methyl-pentanoylamino}-propionic acid tert-butyl ester] |  | 
 | 58 |  | 530 | 4 |  |  |  |  | CC(C)C[C@H](NC(=O)N1CCCCCC1)C(=O)N[C@@H](Cc1ccc(OCc2ccccc2)cc1)C(=O)N1CCCCC1 [Example 167, [S-(R*,R*)]-Azepane-1-carboxylic acid {1-[1-(4-benzyloxy-benzyl)-2-oxo-2-piperidin-1-ylethylcarbamoyl]-3-methyl-butyl}-amide] | −2 | 8
 |  |  | 2900 | 87 | 2030 |  |  |  | CC(C)C[C@H](NC(=O)N1CCOCC1)C(=O)N[C@@H](Cc1ccc(OCc2ccccc2)cc1)C(=O)NCCN1CCCCC1 [Example 177, [S-(R*,R*)]-Morpholine-4-carboxylic acid {1-[2-(4-benzyloxy-phenyl)-1-(2-piperidin-1-ylethylcarbamoyl)-ethylcarbamoyl]-3-methyl-butyl}-amide] | 31 | 68
 |  |  | 2600 | 54 | 1190 | 4850 | 490 |  | CC(C)C[C@H](NC(=O)N1CCCCCC1)C(=O)N[C@@H](Cc1ccc(OCc2ccccc2)cc1)C(=O)NCCCNC1CCCCC1 [Example 184, [S-(R*,R*)]-Azepane-1-carboxylic acid {1-[2-(4-benzyloxy-phenyl)-1-(3-cyclohexylamino-propylcarbamoyl)-ethylcarbamoyl]-3-methyl-butyl}-amide] | 82 | 89
 |  |  | 720 | 61 | 4370 | 42300 | 5700 |  | CC(C)CC(NC(=O)N1CCCCCC1)C(=O)NC(Cc1ccc(OCc2ccccc2)cc1)C(=O)NC(C)C(C)C (stereo not drawn) [Example 191, Azepane-1-carboxylic acid {1-[2-(4-benzyloxy-phenyl)-1-(1,2-dimethyl-propylcarbamoyl)-ethylcarbamoyl]-3-methyl-butyl}-amide] | 38 | 64
 |  |  | 920 |  | 2840 |  |  | 58 | CC(C)CC(NC(=O)N1CCCCCC1)C(=O)NC(Cc1ccc(OCc2ccccc2)cc1)C(=O)NC(C)C(C)C (stereo not drawn) [Example 192, Azepane-1-carboxylic acid {1-[2-(4-benzyloxy-phenyl)-1-(1,2-dimethylpropylcarbamoyl)-ethylcarbamoyl]-3-methyl-butyl}-amide] | 26 | 58
